The results in this text go back to PubChem BioAssay AID1259407 (Chemical Carcinogenesis Research Information System (CCRIS), 2018).

Active and inactive are the calls of the source. The rule behind the calls is not given here.

The subject of the data set is CCRIS mutagenicity, Ames/micronucleus/aberration tests. In words: CCRIS mutagenicity studies.
Setting [1] is: Test System: AMES SALMONELLA TYPHIMURIUM, Strain/Indicator: TA98, Metabolic Activation: NONE, Method: STANDARD PLATE.
[2] abbreviates: Test System: AMES SALMONELLA TYPHIMURIUM, Strain/Indicator: TA98, Metabolic Activation: RAT, LIVER, S-9, AROCLOR 1254, Method: STANDARD PLATE.
Where [3] appears, read: Test System: AMES SALMONELLA TYPHIMURIUM, Strain/Indicator: TA100, Metabolic Activation: NONE, Method: STANDARD PLATE.
Setting [4] is: Test System: AMES SALMONELLA TYPHIMURIUM, Strain/Indicator: TA100, Metabolic Activation: RAT, LIVER, S-9, AROCLOR 1254, Method: STANDARD PLATE.
The mark [5] stands for this setting: Test System: AMES SALMONELLA TYPHIMURIUM, Strain/Indicator: TA1535, Metabolic Activation: NONE, Method: STANDARD PLATE.
Where [6] appears, read: Test System: AMES SALMONELLA TYPHIMURIUM, Strain/Indicator: TA1535, Metabolic Activation: RAT, LIVER, S-9, AROCLOR 1254, Method: STANDARD PLATE.
[7] abbreviates: Test System: AMES SALMONELLA TYPHIMURIUM, Strain/Indicator: TA1537, Metabolic Activation: NONE, Method: STANDARD PLATE.
The mark [8] stands for this setting: Test System: AMES SALMONELLA TYPHIMURIUM, Strain/Indicator: TA1537, Metabolic Activation: RAT, LIVER, S-9, AROCLOR 1254, Method: STANDARD PLATE.
[9] abbreviates: Test System: AMES SALMONELLA TYPHIMURIUM, Strain/Indicator: TA1538, Metabolic Activation: NONE, Method: STANDARD PLATE.
[10] abbreviates: Test System: AMES SALMONELLA TYPHIMURIUM, Strain/Indicator: TA1538, Metabolic Activation: RAT, LIVER, S-9, AROCLOR 1254, Method: STANDARD PLATE.
Where [11] appears, read: Test System: AMES SALMONELLA TYPHIMURIUM, Strain/Indicator: TA98, Metabolic Activation: HAMSTER, LIVER, S-9, AROCLOR 1254, Method: STANDARD PLATE.
[12] abbreviates: Test System: AMES SALMONELLA TYPHIMURIUM, Strain/Indicator: TA100, Metabolic Activation: HAMSTER, LIVER, S-9, AROCLOR 1254, Method: STANDARD PLATE.
The mark [13] stands for this setting: Test System: AMES SALMONELLA TYPHIMURIUM, Strain/Indicator: TA1535, Metabolic Activation: HAMSTER, LIVER, S-9, AROCLOR 1254, Method: STANDARD PLATE.
Setting [14] is: Test System: AMES SALMONELLA TYPHIMURIUM, Strain/Indicator: TA1537, Metabolic Activation: HAMSTER, LIVER, S-9, AROCLOR 1254, Method: STANDARD PLATE.
[15] abbreviates: Test System: AMES SALMONELLA TYPHIMURIUM, Strain/Indicator: TA1538, Metabolic Activation: HAMSTER, LIVER, S-9, AROCLOR 1254, Method: STANDARD PLATE.

Turning to `Nc1cc(CCO)c(N)c([N+](=O)[O-])c1`, the mutagenic call runs as follows: under setting [1], “active; positive”; under setting [2], “active; positive”; under setting [3], “inactive; negative”; under setting [4], “active; positive”; under setting [5], “inactive; negative”; under setting [6], “inactive; negative”. Further, the mutagenic call reads like this: under setting [7], “inactive; negative”; under setting [8], “inactive; negative”; under setting [9], “active; positive”; under setting [10], “active; positive”.

In the case of `CC(Cc1ccc(O)c(O)c1)C(C)Cc1ccc(O)c(O)c1` (configuration not stated), the mutagenic call reads like this: under setting [11], “inactive; negative”; under setting [1], “inactive; negative”; under setting [2], “inactive; negative”; under setting [12], “inactive; negative”; under setting [3], “inactive; negative”; under setting [4], “inactive; negative”. The mutagenic call under setting [13] was “inactive; negative”; the mutagenic call under setting [5] was “inactive; negative”; the mutagenic call under setting [6] is “inactive; negative”; the mutagenic call under setting [14] was “inactive; negative”; the mutagenic call under setting [7] was “inactive; negative”; the mutagenic call under setting [8] was “inactive; negative”. For the same molecule, the mutagenic call reads like this: under setting [15], “inactive; negative”; under setting [9], “inactive; negative”; under setting [10], “inactive; negative”; (Test System: MOUSE LYMPHOMA, Strain/Indicator: L5178Y (TK+/TK-), Metabolic Activation: NONE, Method: SUSPENSION/PLATE) “active; positive. reevaluation of results: positive”; (Test System: MOUSE LYMPHOMA, Strain/Indicator: L5178Y (TK+/TK-), Metabolic Activation: RAT, LIVER, S-9, AROCLOR 1254, Method: SUSPENSION/PLATE) “inactive; negative. reevaluation of results: negative”.

With `C=C(C)C1CC=C(C)C(O)C1` (configuration not stated), the mutagenic call by setting is: (Test System: AMES SALMONELLA TYPHIMURIUM, Strain/Indicator: TA98, Metabolic Activation: HAMSTER, LIVER, S-9, AROCLOR 1254 (10%), Method: PREINCUBATION) “inactive; negative”; (Test System: AMES SALMONELLA TYPHIMURIUM, Strain/Indicator: TA98, Metabolic Activation: NONE, Method: PREINCUBATION) “inactive; negative”; (Test System: AMES SALMONELLA TYPHIMURIUM, Strain/Indicator: TA98, Metabolic Activation: RAT, LIVER, S-9, AROCLOR 1254 (10%), Method: PREINCUBATION) “inactive; negative”; (Test System: AMES SALMONELLA TYPHIMURIUM, Strain/Indicator: TA100, Metabolic Activation: HAMSTER, LIVER, S-9, AROCLOR 1254 (10%), Method: PREINCUBATION) “inactive; negative”; (Test System: AMES SALMONELLA TYPHIMURIUM, Strain/Indicator: TA100, Metabolic Activation: NONE, Method: PREINCUBATION) “inactive; negative”; (Test System: AMES SALMONELLA TYPHIMURIUM, Strain/Indicator: TA100, Metabolic Activation: RAT, LIVER, S-9, AROCLOR 1254 (10%), Method: PREINCUBATION) “inactive; negative”. The mutagenic call reads like this: (Test System: AMES SALMONELLA TYPHIMURIUM, Strain/Indicator: TA1535, Metabolic Activation: HAMSTER, LIVER, S-9, AROCLOR 1254 (10%), Method: PREINCUBATION) “inactive; negative”; (Test System: AMES SALMONELLA TYPHIMURIUM, Strain/Indicator: TA1535, Metabolic Activation: NONE, Method: PREINCUBATION) “inactive; negative”; (Test System: AMES SALMONELLA TYPHIMURIUM, Strain/Indicator: TA1535, Metabolic Activation: RAT, LIVER, S-9, AROCLOR 1254 (10%), Method: PREINCUBATION) “inactive; negative”; (Test System: AMES SALMONELLA TYPHIMURIUM, Strain/Indicator: TA1537, Metabolic Activation: HAMSTER, LIVER, S-9, AROCLOR 1254 (10%), Method: PREINCUBATION) “inactive; negative”; (Test System: AMES SALMONELLA TYPHIMURIUM, Strain/Indicator: TA1537, Metabolic Activation: NONE, Method: PREINCUBATION) “inactive; negative”; (Test System: AMES SALMONELLA TYPHIMURIUM, Strain/Indicator: TA1537, Metabolic Activation: RAT, LIVER, S-9, AROCLOR 1254 (10%), Method: PREINCUBATION) “inactive; negative”.

Take `O=C1CC(c2ccc(O)cc2)Oc2cc(O)cc(O)c21` (configuration not stated): the mutagenic call runs as follows: under setting [11], “inactive; negative”; under setting [1], “inactive; negative”; under setting [2], “inactive; negative”; under setting [12], “inactive; negative”; under setting [3], “inactive; negative”; under setting [4], “inactive; negative”. Also, the mutagenic call by setting is: under setting [13], “inactive; negative”; under setting [5], “inactive; negative”; under setting [6], “inactive; negative”; under setting [14], “inactive; negative”; under setting [7], “inactive; negative”; under setting [8], “inactive; negative”. Besides, the mutagenic call reads like this: under setting [15], “inactive; negative”; under setting [9], “inactive; negative”; under setting [10], “inactive; negative”.

`O=[N+]([O-])C1c2ccccc2-c2ccccc21`: the mutagenic call is, setting by setting: (End Point: IN VITRO CHROMOSOMAL ABERRATIONS, Test System: CHINESE HAMSTER LUNG (CHL) CELLS, Metabolic Activation: NONE) “active; positive”; (End Point: IN VITRO CHROMOSOMAL ABERRATIONS, Test System: CHINESE HAMSTER LUNG (CHL) CELLS, Metabolic Activation: NONE, Method: FISH) “active; positive”; (End Point: IN VITRO CHROMOSOMAL ABERRATIONS, Test System: CHINESE HAMSTER LUNG (CHL) CELLS, Metabolic Activation: RAT, LIVER, S-9, KC-400) “active; positive”; (Test System: E. COLI, Strain/Indicator: WP2 UVRA, Metabolic Activation: NONE, Method: FLUCTUATION) “active; positive”.

On to `Cc1ccc2nc3n(C)c4ccccc4c(C)c-3c2c1`, for which the mutagenic call runs as follows: (Test System: AMES SALMONELLA TYPHIMURIUM, Strain/Indicator: TA97, Metabolic Activation: RAT, LIVER, S-9, AROCLOR 1254, Method: STANDARD PLATE) “active; positive”; under setting [2], “active; positive”.

Consider `CCCCNNCCCC`, for which the mutagenic call was “active; positive” (Test System: AMES SALMONELLA TYPHIMURIUM, Strain/Indicator: TA100, Metabolic Activation: NONE, Method: PREINCUBATION (11 HR GROWTH PERIOD FOR BACTERIA)); “inactive; negative” (Test System: AMES SALMONELLA TYPHIMURIUM, Strain/Indicator: TA100, Metabolic Activation: RAT, LIVER, S-9, PCB, Method: PREINCUBATION (11 HR GROWTH PERIOD FOR BACTERIA)); “active; positive” (Test System: AMES SALMONELLA TYPHIMURIUM, Strain/Indicator: TA102, Metabolic Activation: NONE, Method: PREINCUBATION (5 OR 7 HR GROWTH PERIOD FOR BACTERIA)); “active; positive” (Test System: AMES SALMONELLA TYPHIMURIUM, Strain/Indicator: TA102, Metabolic Activation: RAT, LIVER, S-9, PCB, Method: PREINCUBATION (5 OR 7 HR GROWTH PERIOD FOR BACTERIA)).

Regarding `CN[C@H]1CCc2cc(OC)c(OC)c(OC)c2-c2ccc(OC)c(=O)cc21`, the mutagenic call under setting [1] was “inactive; negative”; the mutagenic call under setting [3] is “inactive; negative”; the mutagenic call (Test System: E. COLI, Strain/Indicator: WP2 (HCR), Metabolic Activation: NONE, Method: STANDARD PLATE) was “inactive; negative”.
